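Protocol summary: plate cells (96-well), add compound at 5 concentrations, incubate 48 h, interpolate endpoints linearly. TGI: total growth inhibition.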
What was measured:
Assay in all cases: NCI anticancer screen, dose series, 48 h
[1] = tested on: 786-0 renal
[2] = tested on: A549 NSCLC
[3] = tested on: ACHN renal
[4] = tested on: CAKI-1 renal
[5] = tested on: CCRF-CEM leukemia
[6] = tested on: COLO 205 colon
[7] = tested on: DLD-1 colon
[8] = tested on: DMS 273 small cell lung
[9] = tested on: EKVX NSCLC
[10] = tested on: HCC-2998 colon
[11] = tested on: HCT-116 colon
[12] = tested on: HCT-15 colon
[13] = tested on: HL-60(TB) leukemia
[14] = tested on: HOP-18 NSCLC
[15] = tested on: HOP-62 NSCLC
[16] = tested on: HOP-92 NSCLC
[17] = tested on: HT29 colon
[18] = tested on: IGROV1 ovarian
[19] = tested on: K-562 leukemia
[20] = tested on: KM12 colon
[21] = tested on: LOX IMVI melanoma
[22] = tested on: LXFL 529 NSCLC
[23] = tested on: M14 melanoma
[24] = tested on: M19-MEL melanoma
[25] = tested on: MOLT-4 leukemia
[26] = tested on: NCI-H226 lung
[27] = tested on: NCI-H23 lung
[28] = tested on: NCI-H460 lung
[29] = tested on: NCI-H522 lung
[30] = tested on: OVCAR-4 ovarian
[31] = tested on: OVCAR-5 ovarian
[32] = tested on: OVCAR-8 ovarian
[33] = tested on: RPMI-8226 leukemia
[34] = tested on: RXF 393 renal
[35] = tested on: SF-295 CNS
[36] = tested on: SF-539 CNS
[37] = tested on: SK-MEL-2 melanoma
[38] = tested on: SK-MEL-5 melanoma
[39] = tested on: SK-OV-3 ovarian
[40] = tested on: SN12C renal
[41] = tested on: SNB-75 CNS
[42] = tested on: SNB-78 CNS
[43] = tested on: SR leukemia
[44] = tested on: SW-620 colon
[45] = tested on: TK-10 renal
[46] = tested on: U251 CNS
[47] = tested on: UACC-257 melanoma
[48] = tested on: UACC-62 melanoma
[49] = tested on: UO-31 renal
[50] = tested on: A498 renal
[51] = tested on: BT-549 breast
[52] = tested on: DU-145 prostate
[53] = tested on: HS 578T breast
[54] = tested on: MALME-3M melanoma
[55] = tested on: MCF7 breast
[56] = tested on: MDA-MB-231 breast
[57] = tested on: MDA-MB-435
[58] = tested on: MDA-N
[59] = tested on: NCI/ADR-RES ovarian
[60] = tested on: OVCAR-3 ovarian
[61] = tested on: PC-3 prostate
[62] = tested on: SF-268 CNS
[63] = tested on: SK-MEL-28 melanoma
[64] = tested on: SNB-19 CNS
[65] = tested on: T-47D breast

Which TGI [1] does the source give for `O=C(O)C(Cc1ccccc1)N1C(=O)N/C(=C\c2ccc(F)cc2)C1=O` (stereo not drawn) here?
Its TGI is over 100 µM.

And the TGI [2]?
The TGI was over 100 µM.

And the TGI [3]?
The TGI was over 100 µM.

What about the TGI [4] of the same compound?
Its TGI is over 100 µM.

And the TGI [5]?
Its TGI is over 100 µM.

What about the TGI [6] of the same compound?
Its TGI is over 100 µM.

What about the TGI [7] of the same compound?
The TGI was over 100 µM.

What about the TGI [8] of the same compound?
Its TGI is over 100 µM.

What about the TGI [9] of the same compound?
Its TGI is over 100 µM.

And the TGI [10]?
The TGI was over 100 µM.

And the TGI [11]?
Its TGI is over 100 µM.

What about the TGI [12] of the same compound?
The TGI was over 100 µM.

And the TGI [13]?
The TGI was over 100 µM.

And the TGI [14]?
The TGI was over 100 µM.

And the TGI [15]?
The TGI was over 100 µM.

And the TGI [16]?
Its TGI is over 100 µM.

What about the TGI [17] of the same compound?
Its TGI is over 100 µM.

What about the TGI [18] of the same compound?
Its TGI is over 100 µM.

What about the TGI [19] of the same compound?
Its TGI is over 100 µM.

What about the TGI [20] of the same compound?
The TGI was over 100 µM.

And the TGI [21]?
Its TGI is over 100 µM.

What about the TGI [22] of the same compound?
Its TGI is over 100 µM.

And the TGI [23]?
The TGI was over 100 µM.

And the TGI [24]?
The TGI was over 100 µM.

And the TGI [25]?
Its TGI is over 100 µM.

And the TGI [26]?
The TGI was over 100 µM.

And the TGI [27]?
The TGI was over 100 µM.

What about the TGI [28] of the same compound?
The TGI was over 100 µM.

What about the TGI [29] of the same compound?
Its TGI is over 100 µM.

What about the TGI [30] of the same compound?
The TGI was over 100 µM.

And the TGI [31]?
Its TGI is over 100 µM.

And the TGI [32]?
Its TGI is over 100 µM.

And the TGI [33]?
Its TGI is over 100 µM.

What about the TGI [34] of the same compound?
Its TGI is over 100 µM.

And the TGI [35]?
Its TGI is over 100 µM.

And the TGI [36]?
The TGI was over 100 µM.

And the TGI [37]?
The TGI was over 100 µM.

What about the TGI [38] of the same compound?
Its TGI is over 100 µM.

And the TGI [39]?
Its TGI is over 100 µM.

What about the TGI [40] of the same compound?
Its TGI is over 100 µM.

What about the TGI [41] of the same compound?
Its TGI is over 100 µM.

What about the TGI [42] of the same compound?
Its TGI is over 100 µM.

And the TGI [43]?
Its TGI is over 100 µM.

What about the TGI [44] of the same compound?
The TGI was over 100 µM.

What about the TGI [45] of the same compound?
The TGI was over 100 µM.

And the TGI [46]?
The TGI was over 100 µM.

What about the TGI [47] of the same compound?
Its TGI is over 100 µM.

And the TGI [48]?
The TGI was over 100 µM.

And the TGI [49]?
Its TGI is over 100 µM.

What does the source list for `NC(N)=Nc1ccc(-c2ccc(N=C(N)N)cc2)cc1`?
TGI [1]: > 100 µM; TGI [50]: > 100 µM; TGI [2]: > 100 µM; TGI [3]: > 100 µM; TGI [51]: > 100 µM; TGI [4]: > 100 µM; TGI [5]: > 95.7 µM; TGI [6]: 47 µM; TGI [52]: > 76.1 µM; TGI [9]: > 100 µM; TGI [10]: > 100 µM; TGI [11]: > 100 µM; TGI [12]: > 100 µM; TGI [13]: > 100 µM; TGI [15]: > 100 µM; TGI [16]: > 100 µM; TGI [53]: 67.3 µM; TGI [17]: > 100 µM; TGI [18]: > 89.6 µM; TGI [19]: > 100 µM; TGI [20]: > 100 µM; TGI [21]: > 100 µM; TGI [23]: > 100 µM; TGI [54]: 62.6 µM; TGI [55]: > 100 µM; TGI [56]: > 100 µM; TGI [57]: > 100 µM; TGI [58]: > 100 µM; TGI [25]: > 100 µM; TGI [26]: 65.4 µM; TGI [27]: > 100 µM; TGI [28]: > 100 µM; TGI [29]: > 100 µM; TGI [59]: > 100 µM; TGI [60]: > 100 µM; TGI [30]: > 100 µM; TGI [31]: 81.3 µM; TGI [32]: > 100 µM; TGI [61]: 75.9 µM; TGI [33]: 66.3 µM; TGI [34]: > 100 µM; TGI [62]: > 100 µM; TGI [35]: > 100 µM; TGI [36]: 74.7 µM; TGI [37]: 99.7 µM; TGI [63]: > 100 µM; TGI [38]: 54.1 µM; TGI [39]: > 100 µM; TGI [40]: > 100 µM; TGI [64]: > 100 µM; TGI [41]: 86.1 µM; TGI [43]: > 100 µM; TGI [44]: > 100 µM; TGI [65]: > 100 µM; TGI [45]: 36.5 µM; TGI [46]: > 100 µM; TGI [47]: > 100 µM; TGI [48]: > 100 µM; TGI [49]: > 100 µM
